Experimental findings from patent US8158593B2, “GPR17 modulators, method of screening and uses thereof” (Universita' degli Studi di Milano, priority 2004, dated 2012) are described below.

For data set [1], the target named is T1, rat GPR17 (Rattus norvegicus, UniProt Q09QM4).
T1 construct: expressed in transfected cells; host or cells: 1321N1; pcDNA3.1
Kind of data set: [35S]GTPγS binding to membranes of 1321N1 cells expressing rat GPR17. It counts as biochemical. As to conditions: agonist; 1321N1 cells expressing rat GPR17. How it is done:
(§1) [^35S]GTPγS Binding Assay. 1321N1 cells, COS-7 and HEK-293 cells (control and transfected cells) were homogenized in 5 mM TRIS-HCl, 2 mM EDTA, pH 7.4 and centrifuged at 48000 g for 15 min at 4° C. The resulting pellets (plasma membranes) were washed in 50 mM TRIS-HCl, 10 mM MgCl2, pH 7.4 and stored at −80° C. until used. Measurement of nucleotide-stimulated [^35S]GTPγS binding to membranes of cells expressing the human or rat GPR17 receptor was performed as previously described^9-11.
To identify the endogenous ligand of GPR17, the cDNAs from human and rat GPR17 were cloned into the mammalian expression vector pcDNA3.1 and transfected in 1321N1, COS-7 and HEK-293 cells for functional characterization. GPR17 activation was assessed by testing the ability of exogenously-added ligands to increase [^35S]GTPγS binding to purified membranes obtained from transfected cells^9-11. […] The specificity of GPR17 responses were also challenged by assessing the ability of some purinergic and leukotriene receptor antagonists to counteract the increase of [^35S]GTPγS binding evoked by nucleotides and cys-LTs in 1321N1 cells expressing either the human or rat receptor. […] Because both P2Y^2,11,12 and CysLT receptors^3,13 may couple to G proteins of the Gi subfamily, to evaluate the involvement of this class of G-proteins, we preincubated 1321N1 cells expressing hGPR17 with pertussis toxin (PTX) which inactivates Gi proteins, prior to membrane preparation and [^35S]GTPγS binding.
Table 1. Potency of various ligands on [^35S]GTPγS binding to membranes obtaind from 1321N1 cells-transfected with human or rat GPR17. […] All data represent the mean of triplicate determinations from 4-9 independent experiments.
(In general: GTPγS is a poorly hydrolysed GTP analogue; its binding reports G protein activation.)

Data set [2] deals with T2, hGPR17 (Homo sapiens, UniProt Q13304). Briefly: [35S]GTPγS binding, HEK-293 cells expressing hGPR17. It counts as biochemical. Set-up: expressed in transfected cells; host or cells: HEK-293 (A4); pcDNA3.1. The settings on record: HEK-293 cells transfected with hGPR17. How it is done:
as §1
To identify the endogenous ligand of GPR17, the cDNAs from human and rat GPR17 were cloned into the mammalian expression vector pcDNA3.1 and transfected in 1321N1, COS-7 and HEK-293 cells for functional characterization. GPR17 activation was assessed by testing the ability of exogenously-added ligands to increase [^35S]GTPγS binding to purified membranes obtained from transfected cells^9-11. […] The specificity of GPR17 responses were also challenged by assessing the ability of some purinergic and leukotriene receptor antagonists to counteract the increase of [^35S]GTPγS binding evoked by nucleotides and cys-LTs in 1321N1 cells expressing either the human or rat receptor. […]

For data set [3], the target named is T2, hGPR17. Kind of data set: Single cell calcium imaging in 1321N1 cells expressing hGPR17. The class given is cell-based. Set-up: expressed in transfected cells; host or cells: 1321N1 (A1, A5), COS-7 (A3, A6), HEK-293 (A4); pcDNA3.1. The text has this: Polychrome IV (TILL Photonics, Germany) was used as light source. Fura-2 and EGFP fluorescence images were collected with a PCO Super […] (Axon Instruments, Forest City, Calif.) and analyzed with the Axon Imaging Workbench 2.2 software (Axon Instruments).

Data set [4] has as its system rGPR17 mRNA. Kind of data set: Antisense down-regulation of rGPR17 mRNA in HEK-293 cells (RT-PCR). The class given is cell-based, rat. As to conditions: 0.3 μM, added 16 and 40 h after transfection. How it is done:
FIG. 4.1 Target sequences of synthesized anti-sense oligonucleotides on rGPR17 mRNA. (a) The various anti-sense sequences were named based on the rat coding sequence (GenBank accession No.: AC112062); black arrows indicate beginning and ending of the coding sequences. All oligonucleotides, including the “scrambled” sequence, were designed as described in Methods. All these sequences were tested in vitro on HEK-293 cells expressing rGPR17 in order to select the most appropriate oligonucleotides to be utilized for the in vivo studies. Two typical experiments are shown in (b), one aimed at assaying oligo616, oligo241 and oligo99, and the other one aimed at assaying oligoSTART and oligoEND, all in comparison with scrambled oligo sequences run in parallel. On day 2 after plating, cells were transfected with pcDNA3.1 containing the construct encoding for rGPR17 together with the neomycin resistance gene, here utilized as a reported gene. […] Twenty-four h after the last Fugene addition, RNA was extracted from cells as described in Methods, and the transcripts for both rGPR17 and the neomycin resistance gene determined as specific RT-PCR amplification products of 1079 and 357 bp, respectively, as indicated. […]

For data set [5], the system named is ischemic brain damage (MCAo). Briefly: Permanent middle cerebral artery occlusion (MCAo), brain infarct size by MRI. It counts as in vivo, rat. The settings on record: 400 ng/animal i.c.v. 48 and 24 h before and 10 min after MCAo. Here is the method:
Quantitative analysis of infarct size volume at 24 and 48 h after MCAo from rats receiving vehicle (C1, n=5) or Mtk (2 mg/kg intravenously, i.v., 10 min after MCAO; n=6); vehicle (C2, n=5) or AR-C (4.5 μg/animal intracerebroventricularly, i.c.v., 10 min after MCAo, n=5), vehicle (C3, n=5) or either oligo616 or scrambled-oligo (400 ng/animal, i.c.v., 48, 24 before and 10 min after MCAo, n=5). Data are expressed as percentage variation of infarct volume at 24 and 48 hours after MCAo compared to 2 h considered as 100% (§ p<0.05, # p<0.01 vs volume at 2 hr; *p <0.05, **p<0.01 vs corresponding control evaluated at the same time point). Induction of focal brain ischemia in the rat. Male Sprague-Dawley rats (Charles River) underwent permanent middle cerebral artery occlusion (MCAo) as previously described^28,29. […] AR-C was utilized here to simply test the involvement of GPR17 in brain ischemia, and, being a very polar molecule which is likely to very poorly permeate the blood brain barrier, it was administered i.c.v. Oligo-616 and oligo-scramble (400 ng in 5 μl of physiological solution) were administered i.c.v three times to each rat 48, 24 h before and 10 minutes after MCAo. Control groups received corresponding vehicle i.c.v. Magnetic Resonance Imaging analysis. […]

T2 sequence (Q13304 29-367): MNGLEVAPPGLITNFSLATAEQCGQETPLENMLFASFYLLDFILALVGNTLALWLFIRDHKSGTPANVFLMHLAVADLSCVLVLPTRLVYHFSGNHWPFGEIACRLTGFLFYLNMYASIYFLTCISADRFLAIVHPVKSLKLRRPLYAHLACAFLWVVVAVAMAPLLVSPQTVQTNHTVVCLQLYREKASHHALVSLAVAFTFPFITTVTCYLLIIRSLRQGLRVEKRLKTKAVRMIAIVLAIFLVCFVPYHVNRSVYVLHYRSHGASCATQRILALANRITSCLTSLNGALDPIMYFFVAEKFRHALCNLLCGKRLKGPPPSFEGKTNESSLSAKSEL
T1 sequence (Q09QM4 whole entry): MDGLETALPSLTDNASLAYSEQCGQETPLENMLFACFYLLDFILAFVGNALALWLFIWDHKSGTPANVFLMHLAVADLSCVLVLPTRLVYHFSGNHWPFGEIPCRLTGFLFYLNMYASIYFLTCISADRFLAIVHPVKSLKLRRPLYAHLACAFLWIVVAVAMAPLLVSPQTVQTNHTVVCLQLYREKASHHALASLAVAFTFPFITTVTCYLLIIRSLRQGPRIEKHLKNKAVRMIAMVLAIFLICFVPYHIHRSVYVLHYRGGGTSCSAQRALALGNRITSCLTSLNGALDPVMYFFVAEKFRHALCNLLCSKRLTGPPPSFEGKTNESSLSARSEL

The compound `O=c1ccn([C@@H]2O[C@H](COP(=O)(O)OP(=O)(O)O)[C@@H](O)[C@H]2O)c(=O)[nH]1` [UDP] showed an EC50 in data set [1] of 4.6 ± 0.6 µM. For the same compound, the “response in [35S]GTPγS binding” value in data set [2] is listed as “induced responses”. For the same compound, in data set [3], the “cells showing rise of [Ca2+]i” value was “approximately 30%”.
“oligo616: antisense oligonucleotide designed on the sequence of rGPR17 mRNA, SEQ ID NO: 1, unmodified (antisense AACTGTACCGGGAGAAGGCC; unmodified DNA; listed as Rattus norvegicus)”: the “attenuation of rGPR17 mRNA / in vitro expression of rGPR17” value in data set [4] was “able to attenuate rGPR17 mRNA”. The “evolution of brain infarct size (MRI)” value in data set [5] was “markedly and significantly attenuated infarct size evolution”.

The term EC50 denotes the midpoint of the concentration-response curve. The low end stands for an effect from little substance, the high end for a need for much substance.
